From a melting point compilation (Tetko et al.; mined from patent text by program, amines drawn as free bases though some values may be those of a salt)

SMILES | melting point
CCOc1ccnc2[nH]ccc12 | 176 to 178 °C
O=C(O)CCCCCCCCCCCNC(=O)CCCCCCCCC/C=C/c1ccccc1 | 119 to 121 °C
COc1nc(C)nc(NC(=O)NS(=O)(=O)OCC(Cl)(Cl)Cl)n1 | 128 °C
CCOC(=O)c1csc(-c2ncccc2O)n1 | 131 to 134 °C
CSc1cc(S(F)(F)(F)(F)F)ccc1C(=O)O | 150 to 152 °C
C=CCOc1c(I)cc(C(=O)CCC(=O)c2cc(OC)c(OC)c(OC)c2)cc1OC | 113 to 114 °C
CC(=O)OCCCc1cc2c(s1)-n1c(C)nnc1CN=C2c1ccccc1Cl | 153 to 155 °C
CCOC(=O)c1cn(NCCC=O)c2nc(C)ccc2c1=O | 175 to 178 °C
C=C1CCC2C3CCc4cc(O)ccc4C3CCC12C (configuration not stated) | 134 to 136 °C
Nc1ccc(C#Cc2ccc(N3CCN4CCC3CC4)nn2)cc1 | 182 to 183 °C
COc1ccc(Cc2nc3c(c4c2[nH]c2ccccc24)C(O)CC(C)(C)C3)cc1 (configuration not stated) | 146 °C
Cn1cc(C2=C(c3cn(CCCOS(C)(=O)=O)c4ccccc34)C(=O)NC2=O)c2ccccc21 | 202 to 204 °C
CCC(=O)NCCC1CCc2ccn3nc(C)cc3c21 (configuration not stated) | 100 to 102 °C
CC(=O)Nc1c(F)ccc2c1CCC(C)N2 (configuration not stated) | 168 to 170 °C
O=C(CS(=O)Cc1ccc2c(c1)OCO2)NO (configuration not stated) | 206 °C
O=C(CCCCN1CCCCC1)c1ccc2oc3ccc(C(=O)CCCCN4CCCCC4)cc3c(=O)c2c1 | 109 to 110 °C
O=C(NCCO)c1cnc(C(F)(F)F)s1 | 128 to 130 °C
O=C1C[C@H](O)C(=O)N1Cc1ccccc1 | 110 to 113 °C
O=C(O)CCC1Cc2ccccc2C1 | 99 to 100 °C
CCN1c2ccccc2NC(=S)c2cccnc21 | 194 to 196 °C
CCCCCCCOCCC(=O)Oc1ccc(N=Nc2ccc(OCCCCCC)cc2)cc1 | 69 °C
CCC(=O)NC[C@H]1CN(c2ccc(N3CCC(=CC#N)CC3)c(F)c2)C(=O)O1 | 200 to 202 °C
CC(CCC(F)(F)C(C)(C)O)C1CCC2C3CCC4=CC(=O)C=CC4(C)C3CCC12C (configuration not stated) | 176 to 177 °C
CCONC(=O)c1nc(-c2ccc(Cl)c(OC)c2F)cc(N)c1Cl | 192 to 195 °C
COC(=O)c1ncn2c1CN(C)C(=O)c1sccc1-2 | 244 to 245 °C
CC(=O)OCC1OC(n2cc(Cc3ccc(Cl)cc3)c3c(Cl)cccc32)C(OC(C)=O)C(OC(C)=O)C1OC(C)=O (configuration not stated) | 214 to 216 °C

SMILES | melting point
CC(=O)OC1CN=C(C)NC1 (configuration not stated) | 141 to 146 °C
O=C(Nc1cc(Cl)c(Cl)c(Cl)c1)c1cc(Br)ccc1O | 297 to 299 °C
CN(CC(=O)[C@H](Cc1ccccc1)NC(=O)NC1CCCCC1)C(=O)N1CCC[C@H]1C(=O)O | 75 to 110 °C
CCS(=O)c1nsc(NC(=O)NC)c1C(N)=O (configuration not stated) | 245 °C
CC(=O)OCC1OC(n2c3ncccc3c3c4c(n5cncc5c32)C(=O)N(C)C4=O)C(OC(C)=O)C(OC(C)=O)C1OC(C)=O (configuration not stated) | 204 °C
COc1nc(C)nc(NC(=O)NS(=O)(=O)c2ccccc2C=CCC#N)n1 | 142 to 143 °C
CC1(C)CCc2c(-c3ccoc3)nc3sc4c(NCCCN5CCCC5=O)ncnc4c3c2C1 | 194 to 195 °C
COc1ccc(CNc2nc(C)nc(C)c2Cl)cc1O | 165 to 168 °C
COC[C@H]1CCCN1C(=O)c1ccc(-c2[nH]nc3c2C(=O)c2c(NC(=O)NN4CCOCC4)cccc2-3)s1 | 262 °C
CC(=O)N(C)c1cc(C(=O)C=CN(C)C)ccc1F | 131 to 132 °C
OC[C@H]1O[C@@H](n2cnc3c(NC4CCOC4)ncnc32)[C@@H](O)[C@H]1O (some centres not stated) | 128 to 130 °C
FC(F)Sc1nnc(-c2ccc(Cl)cc2)s1 | 74 to 76 °C
CCS(=O)(=O)CCC(=O)NNC(=O)N1Cc2ccccc2Oc2c(Cl)cccc21 | 209 to 211 °C
COc1c2c(cc3c1OCO3)C(OC(C)=O)CN(C)C2 (configuration not stated) | 109 to 110 °C
CC(C)(N)COc1ccc(O)c(C(N)=O)c1 | 115 to 117 °C
COc1nccc2oc(S(N)(=O)=O)cc12 | 180 to 182 °C
CCOc1cc(Oc2ccc(S(C)(=O)=O)nc2)cc2cc(C3=NCC(CCO)S3)[nH]c12 (configuration not stated) | 147 to 148 °C
COc1cc(NOC(C)=O)c(Cl)c(OC)c1 | 117 to 118 °C
Cc1oc(-c2ccco2)nc1/C=C/c1ccc(C=CC=C2OC(=O)NC2=O)cc1 | 290 to 291 °C
OC(CN1CCCCC1)c1cc(-c2ccccc2)on1 (configuration not stated) | 104 to 106 °C
CN1CCC(=O)C(C2c3ccccc3Sc3ccccc32)C1 (configuration not stated) | 155 to 156 °C
O=C1OC(=O)C2CC(F)(F)CC12 (configuration not stated) | 50 °C
C=C(C)CN1CCN(CC(=O)N2c3ccccc3C(=O)Nc3cccnc32)CC1 | 205 to 207 °C
C1=C(c2c[nH]cn2)c2ccccc2C1 | 232 to 240 °C
COC(=O)c1cc(Cl)sc1N | 99 to 101 °C

Other lines, results leading:

melting point | SMILES
149 to 150 °C | COC(=S)NC(=O)c1ccccc1-c1ccc(C)cc1
78 °C | CN(C)CCC1=Cc2ccccc2N(C)c2ccccc21
215 to 220 °C | O=C(O)c1cc(Cl)c(OCc2ccc(Cl)cc2)c(Cl)c1
247 to 249 °C | CC(C)c1ccc(-c2cc(-c3cccc(C(=O)O)c3)ccn2)cc1
135 to 142 °C | COC(=O)c1ccccc1-c1ccc(CNc2nc(C(F)(F)F)nc3ccccc23)cc1
279 °C | Cc1oc(-c2ccc(S(C)(=O)=O)cc2)c(Oc2ccc(F)cc2)c(=O)c1Cl
247 to 249 °C | Cc1cccc(-c2nc3cccnn3c2-c2ccnc(NC(=O)Nc3ccccc3)c2)c1
137 to 140 °C | CN(C)Cc1c(-c2ccc3sc(=O)n(C)c3c2)nc2ccccn12
180 to 181 °C | Cc1ccc(S(=O)(=O)Nc2cccc(CCC(=O)c3cnc4sc(C)c(C)n34)c2)cc1
197 to 198 °C | Cc1c(NC(=O)c2ccc(C(C)(C)C)cc2)cccc1-c1cn(C)c(=O)c(Nc2ccc(C(C(=O)O)N(C)C(C)C)cc2)n1 (configuration not stated)
205 °C | CN(C)c1ccc(C(NC(c2ccccc2)c2ccccc2)P(O)O)cc1 (configuration not stated)
141 to 143 °C | CCNC(=O)c1nc(-c2ccc(C)c(C)c2)n(-c2cc(Cl)ccc2C)c1-c1cccc(Cl)c1
189 to 190 °C | N#CN=C(NCc1ccccc1)Nc1cccnc1
> 300 °C | COc1cc(OC)cc(C(=O)NNC(=O)Nc2cccc3c2C(=O)c2c-3n[nH]c2-c2ccc(N3CCNCC3)cc2)c1
157 to 159 °C | O=C(CCCCCN1CCN(c2ccccc2)CC1)Nc1ccc(O)cc1
217 to 219 °C | COc1cc(C=C(C#N)C(=O)Nc2cccc(Cl)c2)cc(Br)c1O
205 to 207 °C | O=C(Nc1ccc(Oc2ccnc(N3CCCC3)n2)c2ccccc12)c1cc(F)cc(N2CCOCC2)c1
143 to 146 °C | Cc1cccc2cc(C(=O)N(C)C)c(C=CNc3ccccc3)nc12
214 to 216 °C | COc1ccc(C(=O)Oc2ccc(C(=O)O)cc2CO)cc1C12CC3CC(CC(C3)C1)C2
185 to 186 °C | O=c1c(CCCc2nc3ccccc3s2)cc2cccnc2n1-c1cccc([N+](=O)[O-])c1
155 to 156 °C | CC(C)c1oc(C=Cc2ccccc2)nc1CC(=O)O
200 °C | Cn1ncnc1COc1nc2c(-c3cc(F)ccc3F)nncn2c1-c1ccccc1
189 to 191 °C | CS(=O)(=O)Cc1ccc(C(=NNC(N)=O)c2ccc(Cl)cc2)cc1

melting point | SMILES
93 to 94 °C | CCOP(=O)(/C=C/c1cn(-c2ccccc2)nc1OCc1ccc(OCc2csc(N3CCOCC3)n2)c(OC)c1)OCC
140 to 142 °C | C#CCOC(C(=O)Nc1ccccc1-c1ccc(O)c(OC)c1)c1ccc(Cl)cc1 (configuration not stated)
270 °C | O=C(Nc1cc(S(=O)(=O)N2CCC(O)C2)sc1Cl)c1cnn2c(C(F)(F)F)cc(-c3ccc(C(F)(F)F)cc3)nc12 (racemic)
114 to 115 °C | CCc1cccc2c(C(C)=CC(=O)O)cc(OC)c(O)c12
202 to 203 °C | CN(C)C(=O)c1c(-c2ccccc2)oc2c(CCl)cccc2c1=O
168 to 170 °C | FCCn1cc(-c2ccc3nnn(Cc4ccc5ncccc5c4)c3n2)cn1
152 to 153 °C | Cc1ccccc1NC(=NC#N)NC(NC(=O)Cc1ccc2c(c1)OCO2)C(C)(C)C (configuration not stated)
174 to 175 °C | O=C1c2cccc3cccc(c23)C(O)N1CCN1CCN(c2ccccn2)CC1 (configuration not stated)
98 to 99 °C | O=C(CCCCCNC1(c2ccccc2Cl)C(=O)Nc2ccc(Cl)cc21)OCc1ccccc1 (configuration not stated)
168 °C | N#Cc1ccc(-c2ccc(SC3SCC(O)C(O)C3O)cc2)cc1 (configuration not stated)
111 to 113 °C | CCCCCC(O)c1cccc(OCc2cccc(CC(=O)O)c2)c1 (configuration not stated)
125 to 127 °C | CCOC(=O)c1c2ccc(Cl)cc2c(-c2ccccc2)n1CCOS(C)(=O)=O
154 to 155 °C | Cc1nn(CC(=O)COCc2ccccc2)c(-c2ccc(F)cc2)c1-c1ccc2c(c1)NC(=O)CO2
174 to 175 °C | COc1ccc(-n2cnc3ccc(-c4nnc(SCc5cccc(C(F)(F)F)c5)o4)cc32)cc1
198 to 199 °C | CCCCCCCNC(=O)Nc1ccccc1C(=O)NC1CCN(C2c3ccccc3COc3ccc(Br)cc32)CC1 (configuration not stated)
123 to 125 °C | CC(=O)c1c(-c2ccccc2)nn(CC2CC2)c(=O)c1Nc1cccc2cccnc12
122 °C | O=C(O)c1ccccc1Oc1cccc(F)c1
158 to 159 °C | O=C(O)CCCCCc1oc(-n2cnc3ccccc32)nc1-c1ccc(Cl)cc1
293 to 296 °C | O=C(Nc1ccccc1)c1ccc2c(c1)S(=O)(=O)N=CN2C1CC1
210 to 212 °C | Cc1occc1C(=O)Nc1ccc(C(=O)N2Cc3cccn3Cc3ccccc32)cn1
140 to 142 °C | CCOC(=O)/C=C/c1cc2nc(CC)n(CCc3ccccc3)c(=O)c2cc1F
150 to 151 °C | Cc1cccc(-c2nc3cccnn3c2-c2ccnc(NCc3ccco3)c2)c1
306 to 308 °C | COc1ccc(-c2ccn(-c3ccc4c5c(n(C)c4c3)CN(C(=O)OC(C)(C)C)CC5)c(=O)c2)cc1
